Test results from ChEMBL document CHEMBL2146430, “Rational evolution of a novel type of potent and selective proviral integration site in Moloney murine leukemia virus kinase 1 (PIM1) inhibitor from a screening-hit compound” (J Med Chem, 2012).
Each block holds one molecule with its values, some of them ahead of it. Activity calls are given as the source filed them. The calls are words filed in the database; no cut-off is given here.

How the values were obtained:
[1] = target: Platelet-derived growth factor receptor alpha (Homo sapiens) (UniProt P16234); assay: Inhibition of PDGFRalpha at 600 nM by electrophoretic mobility shift assay
[2] = target: T1, Serine/threonine-protein kinase pim-1 (Homo sapiens, UniProt P11309); assay: Inhibition of PIM1 at 600 nM by electrophoretic mobility shift assay
Target sequence in this assay (P11309 whole entry, looked up): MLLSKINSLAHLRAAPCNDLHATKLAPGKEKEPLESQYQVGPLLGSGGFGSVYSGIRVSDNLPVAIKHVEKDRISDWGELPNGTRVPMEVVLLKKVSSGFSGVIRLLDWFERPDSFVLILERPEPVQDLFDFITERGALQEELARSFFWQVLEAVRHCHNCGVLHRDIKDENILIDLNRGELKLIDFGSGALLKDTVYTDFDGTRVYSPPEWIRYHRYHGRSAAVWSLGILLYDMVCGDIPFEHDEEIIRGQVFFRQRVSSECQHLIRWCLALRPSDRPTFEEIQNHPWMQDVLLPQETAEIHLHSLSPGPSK

MV4-11 [3] = assay: Growth inhibition of human MV4-11 cells after 48 hrs; assay type: functional; conditions: MV4-11, 48 h
[4] = target: Tyrosine-protein kinase SYK (Homo sapiens) (UniProt P43405); assay: Inhibition of SYK at 600 nM by electrophoretic mobility shift assay
[5] = target: T2, Serine/threonine-protein kinase pim-3 (Homo sapiens, UniProt Q86V86); assay: Inhibition of PIM3 at 600 nM by electrophoretic mobility shift assay
[6] = Metabolic stability in mouse liver microsomes assessed as compound remaining at 1 uM after 1 hr; assay type: ADME, Microsome; conditions: read-out: Stability
[7] = target: T1, Serine/threonine-protein kinase pim-1; assay: Inhibition of PIM1 using 5-FAM-RSRHSSYPAGT-CONH2 as substrate after 2 hrs by electrophoretic mobility shift assay
Target sequence in this assay (P11309 whole entry): as the sequence (P11309 whole entry, looked up) above

[8] = target: T3, Serine/threonine-protein kinase pim-2 (Homo sapiens, UniProt Q9P1W9); assay: Inhibition of PIM2 at 600 nM by electrophoretic mobility shift assay
Target sequence in this assay (Q9P1W9 whole entry, looked up): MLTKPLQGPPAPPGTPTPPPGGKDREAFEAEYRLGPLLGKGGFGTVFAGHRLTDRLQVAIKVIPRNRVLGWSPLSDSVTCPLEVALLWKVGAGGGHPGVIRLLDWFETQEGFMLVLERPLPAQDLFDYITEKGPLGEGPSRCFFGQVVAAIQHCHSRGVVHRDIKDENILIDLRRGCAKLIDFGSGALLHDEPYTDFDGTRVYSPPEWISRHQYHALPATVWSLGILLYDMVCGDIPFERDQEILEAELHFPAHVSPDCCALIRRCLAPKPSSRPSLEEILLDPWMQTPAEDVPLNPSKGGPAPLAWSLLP

[9] = target: Receptor-type tyrosine-protein kinase FLT3 (Homo sapiens) (UniProt P36888); assay: Inhibition of FLT3 at 600 nM by electrophoretic mobility shift assay
[10] = Metabolic stability in human liver microsomes assessed as compound remaining at 1 uM after 1 hr; assay type: ADME, Microsome; conditions: read-out: Stability
[11] = target: Serine/threonine-protein kinase 4 (Homo sapiens) (UniProt Q13043); assay: Inhibition of MST1 at 22500 nM by electrophoretic mobility shift assay
[12] = target: T3, Serine/threonine-protein kinase pim-2; assay: Inhibition of PIM2 at 22500 nM by electrophoretic mobility shift assay
Target sequence in this assay (Q9P1W9 whole entry, looked up): as above

[13] = target: Platelet-derived growth factor receptor alpha (Homo sapiens) (UniProt P16234); assay: Inhibition of PDGFRalpha at 22500 nM by electrophoretic mobility shift assay
[14] = target: Epidermal growth factor receptor (Homo sapiens) (UniProt P00533); assay: Inhibition of EGFR at 22500 nM by electrophoretic mobility shift assay
[15] = target: Receptor-type tyrosine-protein kinase FLT3 (Homo sapiens) (UniProt P36888); assay: Inhibition of FLT3 at 22500 nM by electrophoretic mobility shift assay
[16] = target: Tyrosine-protein kinase SYK (Homo sapiens) (UniProt P43405); assay: Inhibition of SYK at 22500 nM by electrophoretic mobility shift assay
[17] = target: T2, Serine/threonine-protein kinase pim-3; assay: Inhibition of PIM3 at 22500 nM by electrophoretic mobility shift assay
[18] = target: Mitogen-activated protein kinase kinase kinase 9 (Homo sapiens) (UniProt P80192); assay: Inhibition of MLK1 at 22500 nM by ELISA
[19] = target: Vascular endothelial growth factor receptor 2 (Homo sapiens) (UniProt P35968); assay: Inhibition of KDR at 22500 nM by electrophoretic mobility shift assay
[20] = target: Aurora kinase A (Homo sapiens) (UniProt O14965); assay: Inhibition of Aurora A at 22500 nM by electrophoretic mobility shift assay
[21] = target: T1, Serine/threonine-protein kinase pim-1; assay: Inhibition of PIM1 at 22500 nM by electrophoretic mobility shift assay
Target sequence in this assay (P11309 whole entry, looked up): as the sequence (P11309 whole entry, looked up) above

[22] = target: Glycogen synthase kinase-3 beta (Homo sapiens) (UniProt P49841); assay: Inhibition of GSK3beta at 22500 nM by electrophoretic mobility shift assay
[23] = target: T2, Serine/threonine-protein kinase pim-3; conditions: 250 nM
Description: Inhibition of PIM3 at 250 nM by electrophoretic mobility shift assay

[24] = target: T3, Serine/threonine-protein kinase pim-2; conditions: 250 nM
Target sequence in this assay (Q9P1W9 whole entry, looked up): as the sequence (Q9P1W9 whole entry, looked up) above
Description: Inhibition of PIM2 at 250 nM by electrophoretic mobility shift assay

CYP1A2 = CYP1A2 (Homo sapiens, UniProt P05177); assay: Inhibition of CYP1A2 at 10 uM; assay type: ADME
MV4-11 [25] = assay: Cell cycle arrest in human MV4-11 cells assessed as accumulation at G1 phase after 48 hrs by flow cytometry; assay type: functional, cell-based
CYP2C9 = CYP2C9 (Homo sapiens, UniProt P11712); assay: Inhibition of CYP2C9 at 10 uM; assay type: ADME
[26] = target: T1, Serine/threonine-protein kinase pim-1; conditions: 300 nM
Target sequence in this assay (P11309 whole entry, looked up): as the sequence (P11309 whole entry, looked up) above
Description: Inhibition of PIM1 at 300 nM by electrophoretic mobility shift assay

hERG (KCNH2) [27] = target: T4, hERG (KCNH2) (Homo sapiens, UniProt Q12809); assay: Inhibition of human ERG at 10 uM by patch clamp assay
[28] = target: T2, Serine/threonine-protein kinase pim-3; assay: Inhibition of PIM3 by electrophoretic mobility shift assay
hERG (KCNH2) [29] = target: T4, hERG (KCNH2); assay: Inhibition of human ERG at 1 uM by patch clamp assay
[30] = target: Receptor-type tyrosine-protein kinase FLT3 (Homo sapiens) (UniProt P36888); assay: Inhibition of FLT3 at 300 nM by electrophoretic mobility shift assay
[31] = target: T3, Serine/threonine-protein kinase pim-2; assay: Inhibition of PIM2 at 300 nM by electrophoretic mobility shift assay
Target sequence in this assay (Q9P1W9 whole entry, looked up): as the sequence (Q9P1W9 whole entry, looked up) above

[32] = target: T1, Serine/threonine-protein kinase pim-1; assay: Inhibition of PIM1 by electrophoretic mobility shift assay
Target sequence in this assay (P11309 whole entry): as the sequence (P11309 whole entry, looked up) above

MV4-11 [33] = assay: Induction of apoptosis in human MV4-11 cells after 48 hrs by annexin V/propidium iodide staining based flow cytometric analysis; assay type: functional, cell-based
[34] = Metabolic stability in mouse hepatocytes assessed as compound remaining at 1 uM after 2 hrs; assay type: ADME, cell-based, Hepatocyte; conditions: read-out: Stability
CYP2C19 = CYP2C19 (Homo sapiens, UniProt P33261); assay: Inhibition of CYP2C19 at 10 uM; assay type: ADME
CYP3A4 = CYP3A4 (Homo sapiens, UniProt P08684); assay: Inhibition of CYP3A4 at 10 uM; assay type: ADME
WI-38 = assay: Growth inhibition of human WI38 cells after 48 hrs; assay type: cell-based; conditions: wi-38, 48 h
[35] = target: Receptor-type tyrosine-protein kinase FLT3 (Homo sapiens, UniProt P36888); assay: Inhibition of FLT3 by electrophoretic mobility shift assay
[36] = target: T1, Serine/threonine-protein kinase pim-1; conditions: MV4-11, 0.01 to 10 uM
Target sequence in this assay (P11309 whole entry, looked up): as above
Description: Inhibition of PIM1-mediated BAD phosphorylation at ser136 in human MV4-11 cells at 0.01 to 10 uM after 1 hr by Western blotting

[37] = target: T3, Serine/threonine-protein kinase pim-2; assay: Inhibition of PIM2 by electrophoretic mobility shift assay
CYP2D6 = CYP2D6 (Homo sapiens, UniProt P10635); assay: Inhibition of CYP2D6 at 10 uM; assay type: ADME
[38] = target: T2, Serine/threonine-protein kinase pim-3; assay: Inhibition of PIM3 at 300 nM by electrophoretic mobility shift assay
[39] = target: Receptor-type tyrosine-protein kinase FLT3 (Homo sapiens) (UniProt P36888); assay: Inhibition of FLT3 at 200 nM by electrophoretic mobility shift assay
[40] = target: Rho-associated protein kinase 1 (Homo sapiens) (UniProt Q13464); assay: Inhibition of ROCK1 at 200 nM by electrophoretic mobility shift assay
[41] = target: Death-associated protein kinase 1 (Homo sapiens) (UniProt P53355); assay: Inhibition of DAPK1 at 200 nM by electrophoretic mobility shift assay
[42] = target: Platelet-derived growth factor receptor alpha (Homo sapiens) (UniProt P16234); assay: Inhibition of PDGFRalpha at 200 nM by electrophoretic mobility shift assay
[43] = target: Serine/threonine-protein kinase D2 (Homo sapiens) (UniProt Q9BZL6); assay: Inhibition of PKD2 at 200 nM by electrophoretic mobility shift assay
[44] = target: T2, Serine/threonine-protein kinase pim-3; assay: Inhibition of PIM3 at 200 nM by electrophoretic mobility shift assay
[45] = target: T3, Serine/threonine-protein kinase pim-2; assay: Inhibition of PIM2 at 200 nM by electrophoretic mobility shift assay
Target sequence in this assay (Q9P1W9 whole entry, looked up): as the sequence (Q9P1W9 whole entry, looked up) above

[46] = target: Protein kinase C alpha type (Homo sapiens) (UniProt P17252); assay: Inhibition of PKCalpha at 200 nM by electrophoretic mobility shift assay
[47] = target: T1, Serine/threonine-protein kinase pim-1; assay: Inhibition of PIM1 at 200 nM by electrophoretic mobility shift assay
Target sequence in this assay (P11309 whole entry, looked up): as the sequence (P11309 whole entry, looked up) above

[48] = target: Glycogen synthase kinase-3 beta (Homo sapiens) (UniProt P49841); assay: Inhibition of GSK3beta at 200 nM by electrophoretic mobility shift assay

Chain of Receptor-type tyrosine-protein kinase FLT3 (Homo sapiens) (P36888 whole entry): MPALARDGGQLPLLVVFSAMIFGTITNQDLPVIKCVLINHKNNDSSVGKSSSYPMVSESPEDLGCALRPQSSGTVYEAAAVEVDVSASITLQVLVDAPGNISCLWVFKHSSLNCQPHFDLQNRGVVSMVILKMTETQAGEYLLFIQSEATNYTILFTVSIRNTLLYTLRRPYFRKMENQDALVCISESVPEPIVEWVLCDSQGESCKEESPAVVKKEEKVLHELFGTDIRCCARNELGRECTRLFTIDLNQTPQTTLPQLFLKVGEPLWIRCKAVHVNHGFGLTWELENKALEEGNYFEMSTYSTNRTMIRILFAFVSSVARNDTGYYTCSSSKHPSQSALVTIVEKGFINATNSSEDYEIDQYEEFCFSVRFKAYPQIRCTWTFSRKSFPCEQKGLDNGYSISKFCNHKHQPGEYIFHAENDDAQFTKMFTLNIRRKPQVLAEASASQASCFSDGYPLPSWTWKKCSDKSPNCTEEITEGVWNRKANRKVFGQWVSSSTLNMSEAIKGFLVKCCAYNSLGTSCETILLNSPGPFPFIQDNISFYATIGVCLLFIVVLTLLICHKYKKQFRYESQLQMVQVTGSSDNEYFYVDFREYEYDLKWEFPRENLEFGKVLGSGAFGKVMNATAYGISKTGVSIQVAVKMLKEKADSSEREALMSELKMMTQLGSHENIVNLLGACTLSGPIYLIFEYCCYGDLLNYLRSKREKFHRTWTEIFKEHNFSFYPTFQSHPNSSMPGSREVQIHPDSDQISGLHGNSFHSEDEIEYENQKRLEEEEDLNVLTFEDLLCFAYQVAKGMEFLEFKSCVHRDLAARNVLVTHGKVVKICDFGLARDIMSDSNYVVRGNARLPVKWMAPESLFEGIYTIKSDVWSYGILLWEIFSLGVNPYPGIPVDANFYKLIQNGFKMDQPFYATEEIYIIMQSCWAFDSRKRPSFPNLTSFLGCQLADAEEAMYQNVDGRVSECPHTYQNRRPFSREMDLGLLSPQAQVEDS
Chain of Platelet-derived growth factor receptor alpha (Homo sapiens) (P16234 whole entry): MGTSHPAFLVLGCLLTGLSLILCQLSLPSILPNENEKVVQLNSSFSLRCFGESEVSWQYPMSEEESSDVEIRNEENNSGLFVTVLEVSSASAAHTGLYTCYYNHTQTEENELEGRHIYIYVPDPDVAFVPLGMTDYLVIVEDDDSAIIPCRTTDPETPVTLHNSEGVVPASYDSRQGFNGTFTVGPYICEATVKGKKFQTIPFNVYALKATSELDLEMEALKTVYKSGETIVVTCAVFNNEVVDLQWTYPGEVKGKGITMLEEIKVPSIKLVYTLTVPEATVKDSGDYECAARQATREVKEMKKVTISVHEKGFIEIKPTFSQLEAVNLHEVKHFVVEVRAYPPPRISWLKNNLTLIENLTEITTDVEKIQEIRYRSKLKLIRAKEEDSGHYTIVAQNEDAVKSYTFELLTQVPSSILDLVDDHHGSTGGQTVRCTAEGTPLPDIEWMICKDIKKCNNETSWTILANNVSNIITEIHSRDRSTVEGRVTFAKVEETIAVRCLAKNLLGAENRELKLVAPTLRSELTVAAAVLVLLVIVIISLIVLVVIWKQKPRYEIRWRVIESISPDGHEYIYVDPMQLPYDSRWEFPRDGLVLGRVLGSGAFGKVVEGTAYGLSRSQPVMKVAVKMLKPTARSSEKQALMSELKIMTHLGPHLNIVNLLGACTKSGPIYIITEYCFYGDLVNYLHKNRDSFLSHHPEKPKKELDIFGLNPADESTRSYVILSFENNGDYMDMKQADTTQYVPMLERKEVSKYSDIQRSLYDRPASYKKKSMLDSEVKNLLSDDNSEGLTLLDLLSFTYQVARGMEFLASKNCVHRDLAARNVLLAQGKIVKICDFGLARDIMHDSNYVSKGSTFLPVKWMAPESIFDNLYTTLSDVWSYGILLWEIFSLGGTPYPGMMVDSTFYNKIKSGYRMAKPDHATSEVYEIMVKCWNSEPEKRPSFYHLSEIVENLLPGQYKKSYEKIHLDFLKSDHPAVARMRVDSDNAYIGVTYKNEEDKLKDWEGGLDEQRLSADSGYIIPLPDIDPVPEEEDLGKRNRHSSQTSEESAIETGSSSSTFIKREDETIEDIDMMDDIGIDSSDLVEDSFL
Chain of Glycogen synthase kinase-3 beta (Homo sapiens) (P49841 whole entry, looked up): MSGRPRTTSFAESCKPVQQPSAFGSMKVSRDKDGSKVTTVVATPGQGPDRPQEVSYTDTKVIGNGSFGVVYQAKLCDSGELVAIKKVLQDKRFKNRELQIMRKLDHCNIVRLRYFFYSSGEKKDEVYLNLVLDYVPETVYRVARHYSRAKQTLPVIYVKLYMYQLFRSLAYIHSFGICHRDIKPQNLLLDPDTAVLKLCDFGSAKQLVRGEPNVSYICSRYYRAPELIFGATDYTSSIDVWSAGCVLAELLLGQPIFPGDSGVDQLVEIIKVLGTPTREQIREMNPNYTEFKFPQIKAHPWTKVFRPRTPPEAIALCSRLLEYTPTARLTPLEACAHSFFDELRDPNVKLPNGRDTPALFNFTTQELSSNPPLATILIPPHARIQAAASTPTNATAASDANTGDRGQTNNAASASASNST
Chain of CYP2C19 (P33261 whole entry): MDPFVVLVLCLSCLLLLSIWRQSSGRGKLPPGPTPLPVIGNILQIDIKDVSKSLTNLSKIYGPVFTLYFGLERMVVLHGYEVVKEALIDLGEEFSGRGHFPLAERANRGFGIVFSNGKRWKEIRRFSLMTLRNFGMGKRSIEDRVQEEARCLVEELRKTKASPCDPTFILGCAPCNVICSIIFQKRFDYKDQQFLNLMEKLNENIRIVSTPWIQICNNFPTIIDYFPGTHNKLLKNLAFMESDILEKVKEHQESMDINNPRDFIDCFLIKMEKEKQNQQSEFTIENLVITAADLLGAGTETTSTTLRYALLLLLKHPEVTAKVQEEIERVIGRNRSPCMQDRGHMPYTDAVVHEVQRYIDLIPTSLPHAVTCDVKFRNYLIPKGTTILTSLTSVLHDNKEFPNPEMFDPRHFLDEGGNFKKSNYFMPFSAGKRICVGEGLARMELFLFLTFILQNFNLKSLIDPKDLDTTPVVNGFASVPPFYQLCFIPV

SMILES: O=C1/C(=C/c2c[nH]c3ccccc23)Oc2c1ccc(OCc1ccccc1)c2CN1CCNCC1
- IC50 [7]: 43 nM

SMILES: O=C1/C(=C/c2c[nH]c3ccccc23)Oc2c1ccc(O)c2CN1CCCNCC1
- IC50 [7]: 102 nM

SMILES: O=C1/C(=C/c2c[nH]c3ccccc23)Oc2c(CN3CCNCC3)cccc21
- IC50 [7]: 20 nM

SMILES: O=C1/C(=C/c2c[nH]c3ccccc23)Oc2c1ccc(O)c2CN1CCCCCC1
- inhibition [11]: Active
- inhibition [12]: 46%
- inhibition [13]: Active
- inhibition [14]: Active
- inhibition [15]: Active
- inhibition [16]: Active
- remaining at 1 h, 1 µM [6]: 44%
- inhibition [17]: 88%
- inhibition [18]: Active
- inhibition [19]: Active
- inhibition [20]: Active
- inhibition [21]: 77%
- IC50 [7]: 410 nM
- inhibition [22]: Active
- remaining at 1 h, 1 µM [10]: 36%

SMILES: CN1CCN(Cc2c(O)ccc3c2O/C(=C\c2c[nH]c4ccccc24)C3=O)CC1
- IC50 [7]: 388 nM

SMILES: CCOc1ccc2c(c1CN1CCNCC1)O/C(=C\c1c[nH]c3ccccc13)C2=O
- IC50 [7]: 6 nM

SMILES: COc1ccc2c(c1CN1CCNCC1)O/C(=C\c1n[nH]c3ccccc13)C2=O
- inhibition at 10 µM (CYP1A2): 33%
- Activity (MV4-11 [25]): Dose-dependent effect
- inhibition at 10 µM (CYP2C9): < 1%
- GI50 (MV4-11 [3]): 43 nM
- inhibition [26]: 99%
- inhibition at 10 µM (hERG (KCNH2) [27]): 60%
- IC50 [28]: 13 nM
- inhibition at 1 µM (hERG (KCNH2) [29]): 13%
- inhibition [30]: Active
- remaining at 1 h, 1 µM [6]: 92%
- inhibition [31]: 19%
- IC50 [32]: 6 nM
- Activity (MV4-11 [33]): Dose-dependent effect
- remaining at 2 h, 1 µM [34]: 89%
- inhibition at 10 µM (CYP2C19): 54%
- inhibition at 10 µM (CYP3A4): 10%
- IC50 [7]: 3 nM
- Activity (WI-38): Non-toxic
- IC50 [35]: 47 nM
- inhibition [36]: inactive
- IC50 [37]: 1160 nM
- remaining at 1 h, 1 µM [10]: > 99%
- inhibition at 10 µM (CYP2D6): 11%
- inhibition [38]: 98%

SMILES: COc1ccc2c(c1CN1CCNCC1)O/C(=C\c1c[nH]c3ncccc13)C2=O
- inhibition [39]: Active
- inhibition [40]: Active
- inhibition [41]: Active
- inhibition [42]: Active
- inhibition [43]: Active
- inhibition [44]: 99%
- inhibition [45]: 39%
- IC50 [7]: 2 nM
- inhibition [46]: Active
- inhibition [47]: > 99%
- inhibition [48]: Active

SMILES: COc1ccc2c(c1CN1CCNCC1)O/C(=C\c1c[nH]c3ccncc13)C2=O
- IC50 [7]: 53 nM

The remaining lines, values ahead:

- inhibition [1]: Active
- inhibition [2]: 98%
- GI50 (MV4-11 [3]): 270 nM
- inhibition [4]: Active
- inhibition [5]: 97%
- remaining at 1 h, 1 µM [6]: 71%
- IC50 [7]: 17 nM
- inhibition [8]: 30%
- inhibition [9]: Active
- remaining at 1 h, 1 µM [10]: 90%
SMILES: O=C1/C(=C/c2c[nH]c3ccccc23)Oc2c1ccc(O)c2CN1CCNCC1

- IC50 [7]: 12 nM
SMILES: CCCOc1ccc2c(c1CN1CCNCC1)O/C(=C\c1c[nH]c3ccccc13)C2=O

- inhibition [23]: 98%
- GI50 (MV4-11 [3]): 95 nM
- remaining at 1 h, 1 µM [6]: 86%
- inhibition [24]: 30%
- remaining at 1 h, 1 µM [10]: 82%
SMILES: COc1ccc2c(c1CN1CCNCC1)O/C(=C\c1c[nH]c3ccccc13)C2=O

- IC50 [7]: 447 nM
SMILES: COc1ccc2c(c1CN1CCNCC1)O/C(=C\c1c[nH]c3cccnc13)C2=O
